# Literature values, collected in patent US20250287953A1 (CHEMICEUTICAL INC., priority 2021, published 2025).
substance,measurement,value
zinc pyrithione,acute oral toxicity to rodents LD50 (50% lethal dose),269 mg/kg
